Experimental data taken from patent publication US10718770B2, “Methods for screening compounds for treating or preventing a viral infection or a virus-related condition” (ABIVAX, priority 2015, dated 2020).

Experiments:
Recombinant human CBC = biological target: T1, Recombinant human CBC (Homo sapiens, UniProt P52298+Q09161); test: Gel-mobility shift assay: binding of capped RNA to the CBC complex; conditions: native gel; Compound 1 5-50 μM, Compound 1-N-glucuronide 5-100 μM, m7GpppG 12 mM
T1 construct: made in house
T1 sequence (P52298 1-156): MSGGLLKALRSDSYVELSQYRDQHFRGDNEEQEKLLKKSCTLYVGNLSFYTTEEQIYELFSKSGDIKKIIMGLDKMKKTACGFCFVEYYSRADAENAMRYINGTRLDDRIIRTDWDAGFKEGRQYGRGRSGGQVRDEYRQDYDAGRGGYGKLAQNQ
T1 sequence (Q09161 1-790): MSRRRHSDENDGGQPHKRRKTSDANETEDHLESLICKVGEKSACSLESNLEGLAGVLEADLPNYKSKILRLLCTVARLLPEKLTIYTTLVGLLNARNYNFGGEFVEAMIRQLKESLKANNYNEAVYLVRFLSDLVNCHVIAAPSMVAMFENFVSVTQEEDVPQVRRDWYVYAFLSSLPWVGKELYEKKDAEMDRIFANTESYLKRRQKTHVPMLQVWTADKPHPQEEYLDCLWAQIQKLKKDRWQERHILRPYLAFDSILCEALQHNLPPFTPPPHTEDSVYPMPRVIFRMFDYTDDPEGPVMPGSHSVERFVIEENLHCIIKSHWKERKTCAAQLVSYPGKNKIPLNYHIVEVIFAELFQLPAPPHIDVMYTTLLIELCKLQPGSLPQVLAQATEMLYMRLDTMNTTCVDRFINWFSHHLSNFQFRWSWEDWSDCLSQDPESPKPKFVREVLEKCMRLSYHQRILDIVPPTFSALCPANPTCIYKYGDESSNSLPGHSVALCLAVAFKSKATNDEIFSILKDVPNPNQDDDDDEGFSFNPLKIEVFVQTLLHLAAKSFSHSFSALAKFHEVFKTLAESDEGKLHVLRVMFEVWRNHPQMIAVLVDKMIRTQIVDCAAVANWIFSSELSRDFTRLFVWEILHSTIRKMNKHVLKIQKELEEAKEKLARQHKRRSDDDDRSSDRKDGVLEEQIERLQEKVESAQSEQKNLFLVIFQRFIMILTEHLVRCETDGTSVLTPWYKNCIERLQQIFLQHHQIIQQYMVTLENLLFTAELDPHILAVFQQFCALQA
Description: FIG. 4. […] Recombinant human CBC was incubated with a capped RNA substrate and analyzed by native gel electrophoresis in order to resolve the different RNA and RNA-protein complexes: free RNA (lane 1), and CBC-RNA complexes (lanes 2-10) in the presence of 12 mM of m7GppG (lanes 10) or 5 μM, 10 μM or 50 μM of Compound 1 (lanes 2-4, respectively) or 5 μM, 10 μM, 50 μM or 100 μM of Compound 1-N-glucuronide ([…], respectively).
Gel-mobility shift assay in the presence of a m(7)GpppG cap analogue has been established according to the protocol described in Mazza et al. (Large-scale induced fit recognition of an m(7)GpppG cap analogue by the human nuclear cap-binding complex. EMBO J. 21, 5548-5557 (2002)).
Recombinant human CBC was incubated with a capped RNA substrate and analyzed by native gel electrophoresis in order to resolve the different RNA and RNA-protein complexes according to Mazza et al. (Large-scale induced fit recognition of an m(7)GpppG cap analogue by the human nuclear cap-binding complex. EMBO J. 21, 5548-5557 (2002).

[1] = biological target: T2, CBC complex (CBP20 and CBP80) (Homo sapiens, UniProt P52298+Q09161); test: UV crosslinking of purified recombinant CBP20 and CBP80 (CBC complex), SDS-PAGE / Western blot; assay type: binding; conditions: purified recombinant CBP20 and CBP80, after UV irradiation
T2 construct: made in house
T2 sequence (P52298 1-156): T1 sequence (P52298 1-156)
T2 sequence (Q09161 1-790): T1 sequence (Q09161 1-790)
Description: FIG. 2. Compound 1 interacts with the CBC complex. Purified recombinant CBP20 and CBP80 proteins were incubated with increasing concentrations of Compound 1 (left panel) or Compound 1-N-glucuronide (right panel, Gluc) and treated for 30 minutes with UV light. […] Left panel: from left to right, incubation with 0.1 (lane 1), 1 (lane 2), 10 (lane 3) and 50 μM (lane 4) of Compound 1. Right panel: from left to right, incubation with 1 (lane 1), 10 (lane 2), 50 (lane 3), 100 μM (lane 4) and 200 μM (lane 5) of Compound 1-N-glucuronide.
FIG. 3. Compound 1 promotes the interaction of CBP20 with CBP80. A) Purified recombinant CBP20 and CBP80 proteins were incubated with the indicated concentrations of Compound 1-N-glucuronide and they were either untreated (lanes 1-3), treated during 15 min (lanes 4-6) or 30 min (lanes 7-9) with UV light. Proteins were analyzed by SDS-PAGE and stained with Coomassie blue. […] B) Recombinant human CBC was incubated with Compound 1-N-glucuronide and treated with UV for 15 min. After crosslinking the proteins were resolved in SDS-PAGE and stained with Coomassie blue (left panel). Stained proteins (Band 4, Band 5 and Band 7) were digested with trypsin and analysed by mass spectrometry. […]

[2] = biological target: SR protein splicing factor SRSF1 (Homo sapiens, UniProt Q07955); conditions: cited from earlier work
Chain of SR protein splicing factor SRSF1 (Q07955 whole entry): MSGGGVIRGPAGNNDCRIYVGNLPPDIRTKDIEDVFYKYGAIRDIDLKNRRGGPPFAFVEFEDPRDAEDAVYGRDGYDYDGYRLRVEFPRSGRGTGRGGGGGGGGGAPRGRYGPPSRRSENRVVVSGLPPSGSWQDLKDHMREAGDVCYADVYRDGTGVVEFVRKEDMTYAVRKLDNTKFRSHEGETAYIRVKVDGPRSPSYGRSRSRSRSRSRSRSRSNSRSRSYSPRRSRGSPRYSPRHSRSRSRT

Row | SMILES | competition for binding of capped RNA to the CBC complex (Recombinant human CBC) | covalent bridging (UV crosslinking) between CBP20 and CBP80 [1] | production of key viral proteins ([2]; HIV-1) | splicing enhancer activity of SRSF1 [2]
1 | O=C(O)[C@H]1O[C@@H](N(c2ccc(OC(F)(F)F)cc2)c2ccc3cccc(Cl)c3n2)[C@H](O)[C@@H](O)[C@@H]1O [Compound 1-N-glucuronide, 8-chloro-N-glucuronide-N-(4-(trifluoromethoxy)phenyl)quinolin-2-amine] | neither Compound 1 nor Compound 1-N-glucuronide interfere | promote UV crosslinking of CBP20 and CBP80 |  | 
2 | Cc1c2ccnc(Cl)c2cc2c3cn(C)ccc-3nc12 [IDC16, 10-chloro-2,6-dimethyl-2H-pyrido[3′,4′:4,5]pyrrolo[2,3-g]isoquinoline] |  |  | suppresses the production of key viral proteins | interfere with splicing enhancer activity
3 | Cn1c[n+]([C@@H]2O[C@H](COP(=O)(O)OP(=O)([O-])OP(=O)(O)OC[C@H]3O[C@@H](n4cnc5c(=O)[nH]c(N)nc54)[C@H](O)[C@@H]3O)[C@@H](O)[C@H]2O)c2nc(N)[nH]c(=O)c21 [m^7GpppG, reference compound] | competed |  |  | 
